≈ marks a conversion by molar mass, not a printed value. Where two headings read alike, the source gives them in different places.
Assays:
[1] = tested on: E coli wild type; assay: MIC by broth microdilution, wild type E coli; type: cell-based; conditions: for MIC: Escherichia coli
[2] = tested on: P aeruginosa; assay: MIC by broth microdilution, P aeruginosa isolates; type: cell-based, Pseudomonas aeruginosa; conditions: for MIC: Pseudomonas aeruginosa
[3] = tested on: E coli carrying specific resistance determinants; assay: MIC by broth microdilution, E coli carrying specific resistance determinants; type: cell-based; conditions: for MIC: Escherichia coli
[4] = tested on: Klebsiella pneumonia AG215; assay: MIC by broth microdilution, Klebsiella pneumonia; type: cell-based; conditions: strain AG215 Klebsiella pneumonia
[5] = tested on: Acinetobacter baumannii pittii AG225; assay: MIC by broth microdilution, Acinetobacter baumannii; type: cell-based; conditions: strain AG225 Acinetobacter baumannii pittii
[6] = tested on: Enterobacter cloacae AG290; assay: MIC by broth microdilution, Enterobacter cloacae; type: cell-based; conditions: strain AG290 Enterobacter cloacae
[7] = tested on: N. gonorrhoeae; assay: Disk diffusion, N. gonorrhoeae; type: cell-based; conditions: 25 nmol
[8] = tested on: MRSA; assay: MIC by broth microdilution, MRSA isolates; type: cell-based; conditions: for MIC: Staphylococcus aureus, MRSA
[9] = tested on: M. abscessus; assay: MIC by broth microdilution, M. abscessus; type: cell-based; conditions: Mycobacteroides abscessus
[10] = tested on: wild type bacterial ribosomes; assay: in-vitro translation assay, bacterial ribosomes; type: biochemical
Text: (§1) The antiribosomal activity of these compounds was investigated with cell-free translation assays using both wild type bacterial ribosomes and hybrid ribosomes carrying eukaryotic decoding A sites enabling the prediction of selectivity.

[11] = tested on: A1555G mutant mitochondrial ribosome (human chimeric); assay: in-vitro translation assay, human chimeric ribosomes, A1555G mutant mitochondrial decoding site; type: biochemical; conditions: human mitochondrial decoding site with A1555G point mutation; read-out: IC50 Mitoch. A1555G
Text: as §1

[12] = tested on: cytosolic ribosome (human chimeric); type: biochemical
Text: as §1

[13] = tested on: mitochondrial ribosome (human chimeric); type: biochemical
Text: as §1

[14] = tested on: rabbit reticulocyte ribosomes; assay: in-vitro translation assay, rabbit reticulocyte ribosomes; type: biochemical; conditions: mammalian cytosolic ribosomes (rabbit)
[15] = tested on: M. smegmatis SZ380; assay: MIC by broth microdilution, M. smegmatis; conditions: Mycolicibacterium smegmatis
[16] = Mycobacterium smegmatis ribosomes, read-out: IC50 Bacterial
[17] = ribosomes with a human cytosolic decoding site, read-out: IC50 Cytosolic
[18] = ribosomes with a human mitochondrial decoding site, read-out: IC50 Mitoch.

With `CCC[C@@H]1C(CO)O[C@H](O[C@@H]2C(N)C[C@@H](NC(=O)[C@@H](O)CCN)C(O)[C@H]2O[C@@H]2O[C@H](CO)[C@H](O[C@H]3C[C@@H](CN)[C@@H](O)C(O)C3N)C2O)[C@@H](N)C1O` (stereo partly drawn) [Compound 187] the “MIC AG160 E. coli WT” value ([1]; clinical isolate AG160 WT, Table 2 (Example 4)) was 2 µg/mL (≈ 2.7 µM), the “MIC pH430 E. coli WT” value ([1]; engineered strain pH430 WT, Table 2 (Example 4)) was 0.5-1 μg/ml and the “MIC AG212 E. coli” value ([1]; strain AG212 E. coli (ATCC25922)) was 2 µg/mL (≈ 2.7 µM). For the same molecule, the “MIC AG220 P. aerugin” value ([2]; strain AG220 Pseudomonas aeruginosa ATCC27853) was 2 to 4 µg/mL, the “MIC AG163 E. coli APH(3′)-I” value ([3]; clinical isolate AG163 APH(3′)-I, Table 2 (Example 4)) was 2 µg/mL (≈ 2.7 µM) and the “MIC AG166 E. coli APH(3′)-II” value ([3]; clinical isolate AG166 APH(3′)-II, Table 2 (Example 4)) was 2 µg/mL (≈ 2.7 µM). The “MIC AG037 E. coli APH(3′)-III” value ([3]; engineered strain AG037 APH(3′)-III, Table 2 (Example 4)) was 8 µg/mL (≈ 10.8 µM), the “MIC pH421 E. coli APH(3′)-I” value ([3]; engineered strain pH421 APH(3′)-I, Table 2 (Example 4)) was 4-8 μg/ml and the “MIC pH422 E. coli APH(3′)-II” value ([3]; engineered strain pH422 APH(3′)-II, Table 2 (Example 4)) was 0.5-1 μg/ml. For the same molecule, the “MIC pH423 E. coli APH(3′)-VI” value ([3]; engineered strain pH423 APH(3′)-VI, Table 2 (Example 4)) was 1 μg/ml, the “MIC AG215 K. pneumon” value [4] was 0.5 µg/mL (≈ 0.675 µM) and the “MIC AG225 A. baumannii” value [5] was 2 µg/mL (≈ 2.7 µM). The “MIC AG290 E. cloacae” value [6] was 0.5 to 1 µg/mL and the “Disk diffusion 25 nmol N. gonorrhoeae” value [7] was 11 mm.

`NC[C@H]1O[C@H](O[C@H]2[C@H](O[C@@H]3O[C@H](CO)[C@@H](O)[C@H]3O)[C@@H](O)[C@H](N)C[C@@H]2N)[C@H](N)[C@@H](O)[C@@H]1O` [Ribostamycin, ribostamycin, reference compound] gave an MIC ([8]; read-out: MIC AG039 MRSA AAC(6′)-I ANT(4′)-I) greater than 128 µg/mL, an MIC ([8]; read-out: MIC AG042 MRSA AAC(6′)-I ANT(4′)-I APH(2′)) greater than 128 µg/mL and an MIC ([8]; clinical isolate AG038, read-out: MIC AG038 MRSA) of 4 µg/mL (≈ 8.8 µM). It also gave an MIC ([8]; clinical isolate AG044, read-out: MIC AG044 MRSA) of 8 µg/mL (≈ 17.6 µM), an MIC ([1]; ATCC25922, strain AG212 E. coli (ATCC25922), read-out: MIC AG212 E. coli) of 4 µg/mL (≈ 8.8 µM) and an MIC ([1]; WT, Table 3 (Example 1), read-out: MIC WT) of 2 µg/mL (≈ 4.4 µM). The MIC ([1]; WT, Table 5 (Example 3), read-out: MIC E. coli WT) was 2 µg/mL (≈ 4.4 µM), the MIC ([1]; clinical isolate AG001, WT, read-out: MIC AG001 E. coli WT) was 4 µg/mL (≈ 8.8 µM) and the MIC ([1]; clinical isolate AG055, WT, read-out: MIC AG055 E. coli WT) was 2 µg/mL (≈ 4.4 µM). The MIC ([1]; clinical isolate AG160 WT, Table 2 (Example 4), read-out: MIC AG160 E. coli WT) was 4 µg/mL (≈ 8.8 µM), the MIC ([1]; engineered strain pH430 WT, Table 2 (Example 4), read-out: MIC pH430 E. coli WT) was 2 µg/mL (≈ 4.4 µM) and the MIC ([2]; ATCC27853, read-out: MIC AG220 P. aerugin) was greater than 128 µg/mL. The MIC ([2]; read-out: MIC AG031 P. aer. APH(3′)-II) was greater than 128 µg/mL, the MIC ([2]; read-out: MIC AG032 P. aer. APH(3′)-II) was greater than 128 µg/mL and the MIC ([3]; read-out: MIC AG003 E. coli AAC(3)-II) was 4 µg/mL (≈ 8.8 µM). It also gave an MIC ([3]; read-out: MIC AG037 E. coli APH(3′)-III) of 32 to 64 µg/mL (≈ 70.4 to 141 µM), an MIC ([3]; read-out: MIC AG163 E. coli APH(3′)-I) greater than 128 µg/mL and an MIC ([3]; read-out: MIC AG166 E. coli APH(3′)-II) greater than 128 µg/mL. It also gave an MIC ([3]; read-out: MIC APH(3)-VI) greater than 64 µg/mL, an MIC ([3]; read-out: MIC APH(3′)-I) greater than 64 µg/mL and an MIC ([3]; read-out: MIC APH(3′)-II) greater than 64 µg/mL. The MIC ([3]; read-out: MIC APH(3′)-III) was 32 to 64 µg/mL (≈ 70.4 to 141 µM), the MIC ([3]; read-out: MIC E. coli AG106 AAC(2′)-Ia) was 128 µg/mL (≈ 282 µM) and the MIC ([3]; read-out: MIC E. coli pGB2armA armA) was 2 µg/mL (≈ 4.4 µM). For the same molecule, the MIC ([3]; read-out: MIC E. coli pH434 AAC(2′)-Ib) was greater than 128 µg/mL, the MIC ([3]; read-out: MIC pH421 E. coli APH(3′)-I) was greater than 128 µg/mL and the MIC ([3]; read-out: MIC pH422 E. coli APH(3′)-II) was 128 to 256 µg/mL (≈ 282 to 563 µM). The MIC ([3]; read-out: MIC pH423 E. coli APH(3′)-VI) was greater than 128 µg/mL, the MIC ([9]; ATCC19977, ATCC 19977 WT, Table 5 (Example 3), read-out: MIC M. abscessus ATCC 19977 WT) was 128 µg/mL (≈ 282 µM) and the MIC ([9]; read-out: MIC M. abscessus clinical isolate) was 128 µg/mL (≈ 282 µM). It also gave an MIC ([9]; read-out: MIC M. abscessus engineered Δeis2) of 32 µg/mL (≈ 70.4 µM), an IC50 [10, 16] of 0.09 µM and an IC50 ([10]; bacterial ribosome, Table 3 (Example 1), read-out: IC50 Bac) of 0.09 µM. The IC50 [11] was 68 µM, the IC50 ([12]; cytosolic, Table 3 (Example 1), read-out: IC50 Cyt) was 484 µM and the IC50 [12, 17] was 484 µM. For the same molecule, the IC50 ([13]; mitochondrial, Table 3 (Example 1), read-out: IC50 Mit) was 443 µM, the IC50 [13, 18] was 443 µM and the IC50 [14] was 172 µM. For the same molecule, the MIC ([4]; Klebsiella pneumoniae, read-out: MIC AG215 K. pneumon) was 2 µg/mL (≈ 4.4 µM), the MIC [5] was 4 µg/mL (≈ 8.8 µM) and the MIC ([6]; read-out: MIC AG290 E. cloacae) was 4 µg/mL (≈ 8.8 µM). For the same molecule, the MIC ([15]; SZ380, read-out: MIC M. smegmatis SZ380 WT, SZ380 WT, Table 5 (Example 3)) was 8 µg/mL (≈ 17.6 µM) and the MIC ([15]; SZ380, read-out: MIC SZ380 M. smegmatis, strain SZ380 Mycobacterium smegmatis) was 8 µg/mL (≈ 17.6 µM).

For `NC[C@H]1O[C@H](O[C@H]2[C@H](O[C@@H]3O[C@H](CNC=O)[C@@H](O)[C@H]3O)[C@@H](O)[C@H](N)C[C@@H]2N)[C@H](N)[C@@H](O)[C@@H]1O` [DC130], the “MIC AG038 MRSA” value ([8]; clinical isolate AG038) was 64 µg/mL (≈ 133 µM), the “MIC AG039 MRSA AAC(6′)-I ANT(4′)-I” value ([8]; clinical isolate AG039, AAC(6′)-I ANT(4′)-I) was greater than 128 µg/mL and the “MIC AG042 MRSA AAC(6′)-I ANT(4′)-I APH(2′)” value ([8]; clinical isolate AG042, AAC(6′)-I ANT(4′)-I APH(2′)) was greater than 128 µg/mL. For the same molecule, the “MIC AG044 MRSA” value ([8]; clinical isolate AG044) was 128 µg/mL (≈ 266 µM), the “MIC AG001 E. coli WT” value ([1]; clinical isolate AG001, WT) was 32 µg/mL (≈ 66.5 µM) and the “MIC AG055 E. coli WT” value ([1]; clinical isolate AG055, WT) was 32 µg/mL (≈ 66.5 µM). The “MIC AG031 P. aer. APH(3′)-II” value ([2]; clinical isolate AG031, APH(3′)-II) was greater than 128 µg/mL, the “MIC AG032 P. aer. APH(3′)-II” value ([2]; clinical isolate AG032, APH(3′)-II) was greater than 128 µg/mL and the “MIC AG003 E. coli AAC(3)-II” value ([3]; clinical isolate AG003, AAC(3)-II) was 32 µg/mL (≈ 66.5 µM). The IC50 [10, 16] was 0.24 µM, the IC50 [11] was 190 µM and the IC50 [12, 17] was 359 µM. For the same molecule, the IC50 [13, 18] was 364 µM and the IC50 [14] was 152 µM.

Source: patent US11466044B2 (WAYNE STATE UNIVERSITY, priority 2017, dated 2022)
